SMILES strings stand for the structures.

These results are taken from the METLIN SMRT retention time set (Domingo-Almenara et al. 2019).

The nature of the data set: gradient 5% acetonitrile 3 min, to 50% in 2 min, to 85% in 15 min, held 3 min, 100 µL/min. The note with it: column: Zorbax Extend-C18 2.1 x 50 mm; eluents: water / acetonitrile, 0.1% formic acid. The procedure, abridged: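 Using water and acetonitrile that each contained 0.1% formic acid, mixtures of ~100 pure standards were separated at 100 μL/min on a Zorbax Extend-C18 column (2.1 × 50 mm, 1.8 μm). The HPLC fed a quadrupole time-of-flight mass spectrometer working in positive and negative ionization mode, with dead and dwell volumes of 40 μL and 900 μL. Data were acquired over 3 months. Retention time was read from computationally picked adduct peaks after manual inspection of each.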
With `CC(NC(=O)Nc1ccccc1)C(c1ccccc1)N1CCN(C)CC1` (stereo not given), the RP-LC retention time came out at 572 s.

Turning to `CCCCN1CCN(C(=O)c2nc(N3CCSCC3)c3c(C)cc(C)nc3n2)CC1`, the RP-LC retention time worked out at 581 s.

`COC(=O)c1ccc(NC(=O)N2CCCC2c2cccc(F)c2)cc1` (stereo not given) had an RP-LC retention time of 898 s.

Regarding `COCc1cc(=O)n(CC(=O)Nc2cc(C(F)(F)F)ccc2Cl)c(N2CCOCC2)n1`, the RP-LC retention time worked out at 1060 s.

Consider `COc1cc2c(cc1OC)C1C(C(=O)NCc3ccc4c(c3)OCO4)c3ccccc3C(=O)N1CC2` (stereo not given), for which the RP-LC retention time is 753 s.

Take `COc1ccccc1OCC(=O)NCc1ccsc1`: the RP-LC retention time stood at 747 s.

`O=C([C@@H]1C[C@H](Oc2ccccc2)CN1C(=O)c1ccoc1)N1CCCC1` displayed an RP-LC retention time of 733 s.

`Cc1cccc(-c2nc(N)n(C(=O)C(C)C)n2)c1` had an RP-LC retention time of 970 s.

For the molecule `CCCc1nc(-c2c(C)cc(C)nc2NC(=O)c2cccc(Br)c2)no1`, the RP-LC retention time was found to be 1010 s.

As for `O=C(NCCN1CCCCCC1)c1ccc2c(c1)NC(=O)C1CCCCN21` (stereo not given), the RP-LC retention time is 601 s.

In turn, `CCOc1ccc(NC(=O)CSC2CCCCC2)cc1` showed an RP-LC retention time of 975 s.

Take `COc1cccc(CN2CCCn3nc(-c4cccc(OC)c4)cc3C2)c1`: the RP-LC retention time was 561 s.

Turning to `CCN1CCN(c2nccc(-c3cnc4nc(-c5ccc(Cl)cc5)nn4c3C)n2)CC1`, the RP-LC retention time is 1010 s.

In turn, `O=C(COc1ccc(Cl)cc1)Nc1nc(-c2ccccc2)cs1` had an RP-LC retention time of 1100 s.

In the case of `COc1ccc(CNC(=O)NCC2CCN(S(=O)(=O)C3CC3)CC2)cc1`, the RP-LC retention time came to 662 s.

Regarding `CCC(=O)NCc1nc2c(n1C)CN(S(=O)(=O)c1cccc(F)c1)CC2`, the RP-LC retention time was found to be 558 s.

As to `Cc1ccccc1N1C(=O)CN(S(=O)(=O)c2ccccc2)CC1(C)C(=O)NCc1ccc(F)cc1` (stereo not given), the RP-LC retention time is 913 s.

As to `COc1ccc(CNC(=O)c2ccc3ncnc(N4CCCC4)c3c2)cc1`, the RP-LC retention time was determined as 624 s.

In turn, `CC(C)c1noc(-c2cc(=O)n(CC(=O)Nc3cccc(F)c3)c3ccccc23)n1` came in with an RP-LC retention time of 1020 s.

Take `COc1cccc(NC(=O)c2sc(-c3cn(C(C)C)c4ncccc34)nc2C)c1`: the RP-LC retention time turned out to be 1060 s.

Regarding `COc1ccc(C)cc1NC(=O)C1CCCN(C(=O)C2Sc3ccccc3NC2=O)C1` (stereo not given), the RP-LC retention time worked out at 852 s.

The molecule `CCCN1CCn2cc(S(=O)(=O)Nc3ccc(OC)cc3)cc2C1=O` yielded an RP-LC retention time of 715 s.

`COCC(=O)N1CCC(Oc2nccnc2N2CCc3ccccc32)C1` (stereo not given) registered an RP-LC retention time of 779 s.

As to `COc1ccc(Cc2nc(-c3ccc4oc(C)nc4c3)no2)cc1OC`, the RP-LC retention time was 892 s.

For `Cc1noc(C)c1-c1ccc(S(=O)(=O)Nc2ccc(F)c(F)c2)cc1`, the RP-LC retention time was determined as 939 s.

For `Fc1ccccc1-c1nc(-c2ccc3nncn3c2)no1`, the RP-LC retention time is 785 s.

The molecule `CCOc1ccc(CC(=O)N2CCC3(CC2)N=C(c2ccc(C)cc2)NO3)cc1` gave an RP-LC retention time of 871 s.

Take `COc1ccc(OC)c(S(=O)(=O)N2CCCC(C(=O)N3CCOCC3)C2)c1` (stereo not given): the RP-LC retention time worked out at 664 s.

In turn, `CCOc1ccc(-c2nnc(SCC(=O)Nc3nnc(C)s3)o2)cc1` returned an RP-LC retention time of 776 s.

Molecule `Cc1noc(C)c1-c1ccc(S(=O)(=O)Nc2ccc(Br)cc2F)cc1` returned an RP-LC retention time of 1010 s.

In the case of `Cc1ccc(C2Cn3cnc(C(=O)N4CCC(C(=O)NCC5CCCCC5)CC4)c3CO2)cc1` (stereo not given), the RP-LC retention time stood at 885 s.

Regarding `COc1ccc(Br)c(C(=O)NCC#CCN(C(C)C)C(C)C)c1`, the RP-LC retention time was found to be 567 s.

Turning to `Cc1nc(-c2cnccn2)nc2c1CCC(=O)N2CCC1=CCCCC1`, the RP-LC retention time was determined as 876 s.

`O=C(Nc1ccc2c(c1)OCCO2)c1cccc(-c2cnc(N3CCCC3)nc2)c1` displayed an RP-LC retention time of 845 s.

As to `Cc1ccc(C)c(-c2coc(-c3ccc(N)cc3)n2)c1`, the RP-LC retention time came out at 1060 s.

In turn, `Cc1c(Cl)cccc1Nc1ncccc1C(=O)O` returned an RP-LC retention time of 841 s.

Turning to `O=C(Nc1nc(-c2nc3ccccc3s2)cs1)c1ccno1`, the RP-LC retention time is 810 s.

Turning to `CCCN(C(=O)CC(=O)OC)c1nc(-c2ccc(C)cc2)cs1`, the RP-LC retention time stood at 1160 s.

Take `COc1ccc(CC(=O)N2CCC3(CC2)NC(=O)c2cccc(Cl)c2N3)cc1`: the RP-LC retention time was 761 s.

In turn, `COc1ccc(/C=C/c2nn3c(-c4cccnc4)nnc3s2)cc1` yielded an RP-LC retention time of 860 s.

Turning to `CC(=O)Nc1cccc2c(C(=O)N3CCN(c4cccc(Cl)c4)CC3)ccnc12`, the RP-LC retention time came out at 920 s.

Turning to `O=C(NCc1cc(F)ccc1F)C1CCN(C(=O)c2ncn3c2COC(c2ccccc2)C3)CC1` (stereo not given), the RP-LC retention time worked out at 766 s.

The molecule `CCNC(=O)c1cc(N(C)C)nc2ccccc12` showed an RP-LC retention time of 567 s.

For `CSc1ccc(CNC(=O)C2CCCN(C(=O)c3[nH]c(C)c(C(=O)OC(C)C)c3C)C2)cc1` (stereo not given), the RP-LC retention time turned out to be 929 s.

`Cc1cc(N2CCCC2)n2nc(CN3CCCCC3C)nc2n1` (stereo not given) came in with an RP-LC retention time of 566 s.

Regarding `CC(C)C(=O)Nc1ccc(N2CCN(CC(=O)N3CCCC3)CC2)cc1C(=O)O`, the RP-LC retention time came out at 587 s.

On to `CCCn1c(C2CCN(C(=O)Nc3ccc(F)cc3)CC2)cc(=O)n2nccc12`, for which the RP-LC retention time amounted to 648 s.

Take `COc1ccc(S(=O)(=O)Cc2nc(-c3cccc(Br)c3)no2)cc1`: the RP-LC retention time amounted to 1090 s.

`COC(=O)C1=CN(c2ccc(C)c(F)c2)c2cc(F)ccc2S1(=O)=O` gave an RP-LC retention time of 920 s.

For the molecule `Cc1sc(-c2cc(C(F)(F)F)[nH]n2)cc1S(=O)(=O)NC1CCCC1`, the RP-LC retention time amounted to 1000 s.

As to `N#Cc1cccc(NC(=O)CN2C(=O)NC(c3ccc(Cl)cc3)C3=C2COC3=O)c1` (stereo not given), the RP-LC retention time worked out at 763 s.

Take `Cc1ccc(N2CC(C(=O)NC(C)C)CC2=O)cc1` (stereo not given): the RP-LC retention time was determined as 712 s.

`O=C(NC1CC1)c1ccc(OCC2CCN(C(=O)c3ccc(C(F)(F)F)cc3)CC2)cc1` returned an RP-LC retention time of 899 s.

In turn, `O=C(NCC(=O)N1CCCc2ccccc21)c1ccccc1F` yielded an RP-LC retention time of 831 s.

Regarding `Cc1cc2nc(C(=O)NC3CC3)c(=O)n(C)c2cc1C`, the RP-LC retention time turned out to be 714 s.

On to `CCOC(=O)COc1cc(-c2ccc(F)cc2)nc2ccc(NC(=O)COc3ccccc3)cc12`, for which the RP-LC retention time was determined as 924 s.

Regarding `CCOC(=O)c1ccc(N2C=C(C(=O)N3CCCC3)S(=O)(=O)c3ccccc32)cc1`, the RP-LC retention time was 813 s.

`C[C@@H]1O[C@@H](O[C@H]2C(Oc3cc(O)c4c(=O)c(O)c(-c5ccc(O)cc5)oc4c3)O[C@H](CO)[C@@H](O)[C@@H]2O)[C@H](O)[C@H](O)[C@H]1O` (stereo not given in full): the RP-LC retention time was 677 s.

`CCNc1nc(C)cc(N2CCN(C(=O)Nc3cc(C)cc(C)c3)CC2)n1`: the RP-LC retention time was found to be 702 s.

In turn, `O=C(Nc1nc2c(s1)COc1ccccc1-2)C1COc2ccccc2O1` (stereo not given) displayed an RP-LC retention time of 980 s.

`Cc1cc(C)cc(N2CCC(NC(=O)CC(C)(C)C)C2=O)c1` (stereo not given) displayed an RP-LC retention time of 877 s.

For the molecule `O=C(NC1CCCC1)C1CCN(c2nc3ccc(-c4cncnc4)nc3s2)CC1`, the RP-LC retention time amounted to 776 s.

With `O=C(Nc1ccccc1F)N1CC(Oc2ccc(-c3nc(-c4ccccc4)no3)cc2)C1`, the RP-LC retention time was determined as 1130 s.

Regarding `CS(=O)(=O)N1CCC(C(=O)Nc2cc(N3CCOCC3)ncn2)CC1`, the RP-LC retention time amounted to 563 s.

In turn, `COC1C(=O)N(CC2CC2)C12CCN(C(=O)C1CCOCC1)CC2` (stereo not given) returned an RP-LC retention time of 638 s.

In the case of `COc1ccc(OCC(=O)N2CCc3cc(-c4csc(C)n4)ccc32)cc1`, the RP-LC retention time was 958 s.

The molecule `CCC(Oc1ccc(=O)n(-c2ccc(F)cc2)n1)C(=O)NCc1ccc(C)o1` (stereo not given) had an RP-LC retention time of 831 s.

In turn, `CC(C)C(=O)NC(C)c1nc2ccccc2n1CC(N)=O` (stereo not given) gave an RP-LC retention time of 503 s.

As to `CCCN1C(=O)COc2ccc(-c3noc(-c4cccc(OC)c4)n3)cc21`, the RP-LC retention time worked out at 1190 s.

For `Cc1cc(C)cc(NC(=O)C2CCCN2S(=O)(=O)c2cc3c(cc2C)NC(=O)CO3)c1` (stereo not given), the RP-LC retention time came out at 815 s.

As to `Cc1cc(C)c(S(=O)(=O)N2CCc3c(c(CN4CCCC4)nn3C)C2)c(C)c1`, the RP-LC retention time was found to be 686 s.

For `COc1cccc2c1OC1(C)CC2C(S(=O)(=O)c2ccc(C(C)C)cc2)C(=O)N1` (stereo not given), the RP-LC retention time was found to be 938 s.

For `Cc1nc2cccnc2n1C1CCN(C(=O)C2CCCCC2)C1` (stereo not given), the RP-LC retention time was found to be 591 s.

`COc1ccc2c(c1)C(C)CC(C)(C)N2C(=O)CSc1ncccn1` (stereo not given) had an RP-LC retention time of 994 s.

Regarding `CC(C)n1cnc(S(=O)(=O)N2CCC(C(=O)Nc3ccc(OC(F)(F)F)cc3)CC2)c1`, the RP-LC retention time amounted to 888 s.

`O=C(C1CCN(S(=O)(=O)Cc2ccc(F)cc2)CC1)N1CCCC1` displayed an RP-LC retention time of 735 s.

As for `CCOc1cc(C(=O)N2CCCC2c2nc(-c3ccc(C)cc3)no2)cc(OCC)c1OCC` (stereo not given), the RP-LC retention time was found to be 1200 s.

Turning to `COc1ccc(NC(=O)Cn2c(C)cc(-c3nnc(C4CCC4)o3)c2C)cc1F`, the RP-LC retention time was found to be 697 s.

For the molecule `O=C(O)c1ccc(NC(=O)c2ccc([N+](=O)[O-])cc2Cl)cc1`, the RP-LC retention time worked out at 719 s.

As for `Cc1ccccc1N1CCN(S(=O)(=O)c2cc(-c3nnc(C4CC4)o3)co2)CC1`, the RP-LC retention time amounted to 1090 s.
